Values quoted from earlier work as cited in US20100292326A1, “PHARMACEUTICAL COMPOSITION COMPRISING S-NITROSOGLUTATHIONE AND POLYSACCHARIDE” (priority 2007, published 2010).

Conditions: buffer

- half-life: 5.5 h
SMILES: N[C@@H](CCC(=O)N[C@@H](CSN=O)C(=O)NCC(=O)O)C(=O)O [GSNO, S-nitrosoglutathione]
